Where “and” joins values, the source holds several entries; their conditions need not be identical. Identical values can stand only once. Inconclusive results and toxic doses are left out. No stated cut-off is given here; in the data, active means T/C of 150% or more; inactive means T/C below 125%.
Test system: L1210 leukemia ip in BDF1 mice, survival T/C
Assay: NCI In Vivo Anticancer Drug Screen. Data for tumor model L1210 Leukemia (intraperitoneal) in B6D2F1 (BDF1) mice
Details: endpoint: mean survival time, higher = longer survival
Summary of the method: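 Ratio derived from survival: compound-dosed mice over vehicle-dosed mice, all bearing a transplantable tumor.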

[1] = dose: 100.0 mg/kg/injection, schedule: Q04DX003 (ip), vehicle: Klucel (hydroxypropylcellulose) (HPC)
[2] = dose: 200.0 mg/kg/injection, schedule: Q04DX003 (ip), vehicle: Klucel (hydroxypropylcellulose) (HPC)
[3] = dose: 400.0 mg/kg/injection, schedule: Q04DX003 (ip), vehicle: Klucel (hydroxypropylcellulose) (HPC)
[4] = dose: 100.0 mg/kg/injection, schedule: Q01DX009 (ip), vehicle: Klucel (hydroxypropylcellulose) (HPC)
[5] = dose: 200.0 mg/kg/injection, schedule: Q01DX009 (ip), vehicle: Klucel (hydroxypropylcellulose) (HPC)
[6] = dose: 400.0 mg/kg/injection, schedule: Q01DX009 (ip), vehicle: Klucel (hydroxypropylcellulose) (HPC)
[7] = dose: 100.0 mg/kg/injection, schedule: Q04DX003 (ip), vehicle: saline
[8] = dose: 200.0 mg/kg/injection, schedule: Q04DX003 (ip), vehicle: saline
[9] = dose: 100.0 mg/kg/injection, schedule: Q01DX001 (ip), vehicle: saline
[10] = dose: 200.0 mg/kg/injection, schedule: Q01DX001 (ip), vehicle: saline
[11] = dose: 400.0 mg/kg/injection, schedule: Q01DX001 (ip), vehicle: saline
[12] = dose: 100.0 mg/kg/injection, schedule: Q01DX001 (ip), vehicle: saline with Tween-80
[13] = dose: 400.0 mg/kg/injection, schedule: Q01DX001 (ip), vehicle: saline with Tween-80
[14] = dose: 100.0 mg/kg/injection, schedule: Q04DX003 (ip), vehicle: saline with Tween-80
[15] = dose: 200.0 mg/kg/injection, schedule: Q04DX003 (ip), vehicle: saline with Tween-80
[16] = dose: 400.0 mg/kg/injection, schedule: Q04DX003 (ip), vehicle: saline with Tween-80
[17] = dose: 100.0 mg/kg/injection, schedule: Q01DX001 (ip), vehicle: carboxymethylcellulose (CMC)
[18] = dose: 200.0 mg/kg/injection, schedule: Q01DX001 (ip), vehicle: carboxymethylcellulose (CMC)
[19] = dose: 400.0 mg/kg/injection, schedule: Q01DX001 (ip), vehicle: carboxymethylcellulose (CMC)
[20] = dose: 100.0 mg/kg/injection, schedule: Q04DX003 (ip), vehicle: other
[21] = dose: 200.0 mg/kg/injection, schedule: Q04DX003 (ip), vehicle: other
[22] = dose: 400.0 mg/kg/injection, schedule: Q04DX003 (ip), vehicle: other

Measured: T/C

O=C(COc1cccc(C(=O)O)c1)Nc1ccccc1
inactive: [1] 95 % of control | [2] 93 % of control | [3] 92 % of control

c1ccc2c3c([nH]c2c1)C1CC2CC(C1)CC3C2
inactive: dose: 100.0 mg/kg/injection, schedule: Q04DX003 (ip), vehicle: alcohol 105 % of control | dose: 200.0 mg/kg/injection, schedule: Q04DX003 (ip), vehicle: alcohol 96 % of control | dose: 400.0 mg/kg/injection, schedule: Q04DX003 (ip), vehicle: alcohol 96 % of control

CCCCOC(=O)c1ccc(NC(=O)Nc2ccccc2CC)cc1
inactive: [4] 102 % of control | [5] 109 % of control | [6] 94 % of control

C#CC[N+]12CN3CN(CN(C3)C1)C2
inactive: [7] 101 % of control | [8] 98 % of control | dose: 400.0 mg/kg/injection, schedule: Q04DX003 (ip), vehicle: saline 102 % of control

CCOC(=O)N1C2CC=CCC1C1(c3ccccc3)OC2(c2ccccc2)c2ccccc21
inactive: dose: 100.0 mg/kg/injection, schedule: Q04DX002 (ip), vehicle: DMSO 96 % of control

O=C(N/C=C/NC(=O)c1ccccc1)c1ccccc1
inactive: dose: 100.0 mg/kg/injection, schedule: Q01DX001 (ip), vehicle: Klucel (hydroxypropylcellulose) (HPC) 104 % of control | dose: 200.0 mg/kg/injection, schedule: Q01DX001 (ip), vehicle: Klucel (hydroxypropylcellulose) (HPC) 111 % of control | dose: 400.0 mg/kg/injection, schedule: Q01DX001 (ip), vehicle: Klucel (hydroxypropylcellulose) (HPC) 104 % of control

NC(=S)c1ccccc1N
inactive: dose: 15.0 mg/kg/injection, schedule: Q01DX Z (ip), vehicle: methylcellulose (MC) 110 % of control | dose: 30.0 mg/kg/injection, schedule: Q01DX Z (ip), vehicle: methylcellulose (MC) 98 % of control | dose: 60.0 mg/kg/injection, schedule: Q01DX Z (ip), vehicle: methylcellulose (MC) 101 % of control | dose: 120.0 mg/kg/injection, schedule: Q01DX Z (ip), vehicle: methylcellulose (MC) 115 % of control

OC(COc1ccccc1)CN1CCN(c2cccc(Cl)c2)CC1 (stereo unspecified)
inactive: [9] 97 % of control | [10] 95 % of control | [11] 92 % of control

O=C(O)c1ccccc1C(=O)OC1CC2CCC1CC2 (stereo unspecified)
inactive: [12] 98 % of control | dose: 200.0 mg/kg/injection, schedule: Q01DX001 (ip), vehicle: saline with Tween-80 104 % of control | [13] 100 % of control

Cc1ccc2c3c1C(O)C(C(N)=O)C3CCS2 (stereo unspecified)
inactive: [10] 89 % of control | [11] 106 % of control

[O-]/[N+](=N/O)c1ccccc1
inactive: [9] 92 % of control

CC(c1ccccc1)n1cnc2c(N(CCO)CCO)ncnc21 (stereo unspecified)
inactive: [9] 117 % of control | [10] 104 % of control | [11] 101 % of control

CN(C)c1ccc(C(C[N+](=O)[O-])(c2ccc(N(C)C)cc2)c2ccc(N(C)C)cc2)cc1
inactive: [4] 93 % of control | [1] 103 % of control | [5] 100 % of control | [2] 93 % of control | [6] 97 % of control | [3] 90 % of control

COc1ccccc1C(=O)C=C(C(F)(F)F)C(F)(F)F
inactive: [14] 95 % of control | [15] 97 % of control

Cc1c(Cl)cccc1NC(=S)NC(=O)/C=C/c1ccccc1
inactive: dose: 50.0 mg/kg/injection, schedule: Q04DX003 (ip), vehicle: saline with Tween-80 96 % of control | [12] 90 % of control | dose: 100.0 mg/kg/injection, schedule: Q01DX009 (ip), vehicle: saline with Tween-80 98 % of control and 92 % of control | dose: 100.0 mg/kg/injection, schedule: Q04DX002 (ip), vehicle: saline with Tween-80 96 % of control and 87 % of control | [14] 93 % of control and 102 % of control | dose: 200.0 mg/kg/injection, schedule: Q01DX009 (ip), vehicle: saline with Tween-80 95 % of control and 98 % of control | dose: 200.0 mg/kg/injection, schedule: Q04DX002 (ip), vehicle: saline with Tween-80 107 % of control and 116 % of control | [15] 101 % of control | [13] 93 % of control | dose: 400.0 mg/kg/injection, schedule: Q01DX009 (ip), vehicle: saline with Tween-80 95 % of control and 90 % of control | dose: 400.0 mg/kg/injection, schedule: Q04DX002 (ip), vehicle: saline with Tween-80 111 % of control and 112 % of control | [16] 102 % of control and 88 % of control

Cc1c(Br)sc2ccccc12
inactive: [17] 96 % of control | [18] 96 % of control | [19] 107 % of control

CC[N+](C)(C)CCCNC(=O)C12CC3CC(CC(C3)C1)C2
inactive: dose: 25.0 mg/kg/injection, schedule: Q04DX002 (ip), vehicle: saline 99 % of control | dose: 50.0 mg/kg/injection, schedule: Q04DX002 (ip), vehicle: saline 96 % of control

CN1CN(c2ccccc2)C2(CCN(Cc3nc4ccccc4[nH]3)CC2)C1=O
inactive: dose: 75.0 mg/kg/injection, schedule: Q04DX003 (ip), vehicle: Klucel (hydroxypropylcellulose) (HPC) 100 % of control | dose: 150.0 mg/kg/injection, schedule: Q04DX003 (ip), vehicle: Klucel (hydroxypropylcellulose) (HPC) 107 % of control | dose: 300.0 mg/kg/injection, schedule: Q04DX003 (ip), vehicle: Klucel (hydroxypropylcellulose) (HPC) 105 % of control

CC1(C(=O)c2ccccc2)OC1c1ccccc1 (stereo unspecified)
inactive: [4] 98 % of control | [5] 104 % of control | [6] 103 % of control

N#Cc1c(F)c(F)c(Oc2c(F)c(F)c(F)c(Oc3c(F)c(F)c(C#N)c(F)c3F)c2F)c(F)c1F
inactive: dose: 100.0 mg/kg/injection, schedule: Q01DX009 (ip), vehicle: other 103 % of control | [20] 100 % of control | dose: 200.0 mg/kg/injection, schedule: Q01DX009 (ip), vehicle: other 100 % of control | [21] 97 % of control and 100 % of control | [22] 86 % of control

C/C=C/C=C/C(=O)N(C)c1ccccc1
inactive: dose: 50.0 mg/kg/injection, schedule: Q01DX001 (ip), vehicle: carboxymethylcellulose (CMC) 111 % of control | [17] 103 % of control | [18] 103 % of control | [19] 100 % of control

Cc1cn(C2CC(OS(C)(=O)=O)C(CO)O2)c(=O)[nH]c1=O (stereo unspecified)
inactive: dose: 100.0 mg/kg/injection, schedule: Q01DX005 (ip), vehicle: saline 102 % of control | dose: 200.0 mg/kg/injection, schedule: Q01DX005 (ip), vehicle: saline 104 % of control

CC1(O)CCCCC1c1ccccc1 (stereo unspecified)
inactive: [20] 104 % of control | [21] 95 % of control | [22] 93 % of control

CCOC(=O)c1ccc(N2C(=O)c3cccc4cccc(c34)C2=O)c([N+](=O)[O-])c1
inactive: [14] 97 % of control | [15] 93 % of control | [16] 95 % of control

COC(=O)CNC(=O)OCc1ccccc1
inactive: [4] 108 % of control | [1] 101 % of control | [5] 97 % of control | [2] 101 % of control | [6] 96 % of control | [3] 98 % of control

CN=C1N[N+]2=C(C)CCCC2S1 (stereo unspecified)
inactive: [7] 95 % of control | [8] 95 % of control

COc1ccc(NC(=O)Nc2ccc(C)cc2C)cc1
inactive: [14] 93 % of control | [15] 90 % of control | [16] 95 % of control

Reference: PubChem BioAssay AID248 (DTP/NCI, 2004)
